Laboratory results published in patent US11819510B2, “Food composition for ameliorating cerebrovascular diseases containing 2′- fucosyllactose and pharmaceutical composition for preventing or treating cerebrovascular diseases containing 2′-fucosyllactose” (Advanced Protein Technologies Corp., priority 2020, dated 2023).

What was measured:
[1] = tested on: CRP-induced aggregation of mouse platelets; test: Platelet aggregation induced by CRP; type: cell-based; conditions: CRP 0.15 μg/ml; 2′-fucosyllactose 300 to 1,000 μM, FOS and 3-fucosyllactose 1,000 μM; pretreated 37° C. 15 minutes; vs vehicle; FIG. 2A
[2] = tested on: collagen-induced aggregation of mouse platelets; test: Platelet aggregation induced by collagen; type: cell-based; conditions: collagen 0.5 μg/ml; 2′-fucosyllactose 300 to 1,000 μM, FOS and 3-fucosyllactose 1,000 μM; pretreated 37° C. 15 minutes; vs vehicle; FIG. 2B
HepG2 cells = test: HMO cytotoxicity test (CCK assay); type: cell-based; conditions: 24 hours treatment, FIG. 4
Description: In this experimental example, the cytotoxicity of HMOs was evaluated by CCK assay (Oh, Y. C.; Jeong, Y. H.; Pak, M. E.; Go, Y., Banhasasim-Tang Attenuates Lipopolysaccharide-Induced Cognitive Impairment by Suppressing Neuroinflammation in Mice. Nutrients 2020, 12, (7)). No protocol for measuring cytotoxicity to platelets has been established, so HepG2 cells were pretreated with an HMO (2′-fucosyllactose or 3-fucosyllactose) in a concentration-dependent manner. After 24 hours, each well was treated with a cell-counting kit solution (Dojindo Molecular Technologies, Inc.), and further incubated for 1 hour, and then absorbance was measured at a wavelength of 450 nm using a microplate reader.

[3] = tested on: carotid artery thrombosis; test: FeCl3-induced carotid artery thrombosis mouse model, blood flow measurement; type: in vivo; conditions: 7 days, FeCl3 (10%) mouse model, vehicle 7.47 minutes
Description: Male C57BL/6 mice (6-8 weeks old) used in the experiment were purchased from Dooyeol Biotech Co., Ltd., were acclimatized for a predetermined period at 23±1° C. and 56% relative humidity while a general diet was provided thereto for 1 week, and were then used for the experiment. In the following, animal experiments were performed in accordance with the guide for the animal study protocols approved by the Korea Institute of Oriental Medicine Institutional Animal Care and Use Committee (approval number: 20-058). FeCl3 (10%) was used to establish a thrombosis-induced mouse model. Mice were orally administered with 2′-fucosyllactose (500, 1,000 mg/kg BW), 3-fucosyllactose (1,000 mg/kg BW), or ASA (100 mg/kg BW) for 7 days. 2 hours after the last administration, the mice were anesthetized with 2% isoflurane, the left carotid artery was isolated from each mouse, and filter paper (2 mm in diameter) soaked with FeCl3 (10%) was placed on the carotid artery for 2 minutes to induce thrombosis. Blood flow was measured using a blood flow meter (AD meter).

[4] = tested on: thromboxane A2 analogue-induced aggregation of mouse platelets; test: Platelet aggregation induced by thromboxane A2 analogue (U46619); type: cell-based; conditions: thromboxane A2 analogue 3 μM; pretreated 37° C. 15 minutes; vs vehicle; FIG. 2D
Description: (§1) Platelets were collected from the abdominal vein of mice (6-8 weeks of age) using a syringe pretreated with a citrate-dextrose solution (ACD, Sigma). After centrifugation at 300×g at room temperature for 20 minutes to obtain platelet-rich plasma (PRP), 0.5 μM PGE1 was added to the plasma isolated from red blood cells, followed by re-centrifugation at 700×g for 4 minutes. The precipitated platelets were washed with HEPES-Tyrode buffer (5 mM HEPES/NaOH, pH 7.3, 5 mM glucose, 136 mM NaCl, 12 mM NaHCO3, 2.7 mM KCl) containing 10% ACD, followed by centrifugation at 700×g for 5 min. The precipitated platelets were adjusted to a concentration of 3×10^8 cells/mL in HEPES-Tyrode buffer and used in this experiment.
(§2) Mouse platelets immersed in HEPES-Tyrode buffer at a concentration of 3×10^8 cells/mL were pre-treated with a vehicle (distilled water), 1,000 μM FOS, 3′-fucosyllactose, and various concentrations (300 to 1,000 μM) of 2′-fucosyllactose at 37° C. for 15 minutes, and were then activated awith CRP, collagen, thrombin, and thromboxane A2 analogues in a platelet aggregation system. Platelet aggregation was induced at a rate of 1,000 rpm at 37° C. and then measured in a platelet aggregation meter (Chrono-log Corp, Havertown, PA). […]

[5] = tested on: thrombin-induced aggregation of mouse platelets; test: Platelet aggregation induced by thrombin; type: cell-based; conditions: thrombin 0.025 U/ml; pretreated 37° C. 15 minutes; vs vehicle; FIG. 2C
Description: as §1, §2

platelet αIIbβ3 integrin = test: Flow cytometry of platelet αIIbβ3 integrin activation after CRP activation; type: cell-based, mouse; conditions: 300 to 1,000 μM, concentration-dependent; 0.15 μg/ml CRP 5 minutes; vs vehicle; FIG. 3B
Description: as §1
(§3) The activity of each of platelet P-selectin and αIIbβ3, which are known biomarkers of platelet activity, was measured using a flow cytometer (Gallios, Beckman Coulter). Mouse platelets were pretreated with a vehicle (distilled water), 1,000 μM FOS and 3-fucosyllactose, and various concentrations (300 to 1,000 μM) of 2′-fucosyllactose at 37° C. for 15 minutes, and were then activated with 0.15 ug/ml CRP at 37° C. for 5 minutes, after which the activity thereof was measured using P-selectin and αIIbβ3 antibodies.
(§4) The mechanism of inhibition of platelet activation by HMOs was determined. […]

[6] = tested on: P-selectin of mouse platelet α-granule; test: Flow cytometry of platelet P-selectin exposure after CRP activation; type: cell-based; conditions: 300 to 1,000 μM, concentration-dependent; 0.15 μg/ml CRP 5 minutes; vs vehicle; FIG. 3A
Description: as §1, §3, §4

Compound | inhibition of platelet aggregation induced by CRP [1] | inhibition of platelet aggregation induced by collagen [2] | cell death of HepG2 (cell viability, CCK assay) (HepG2 cells) | average carotid artery occlusion time ([3]; 1,000 mg/kg BW oral) [min] | inhibition of platelet aggregation induced by thromboxane A2 analogue [4] | inhibition of platelet aggregation induced by thrombin [5] | inhibition of activation of platelet αIIbβ3 integrin (platelet αIIbβ3 integrin) | inhibition of activation of P-selectin of mouse platelet α-granule [6] | average carotid artery occlusion time ([3]; 500 mg/kg BW oral) [min] | carotid artery occlusion time ([3]; 100 mg/kg BW oral, positive control) [min]
3-fucosyllactose [reference compound] | not significantly inhibited | not significantly inhibited | not observed | 8.18 | – | – | – | – | – | –
2′-fucosyllactose | significantly inhibited | significantly inhibited | not observed | 14.52 | did not exhibit an inhibitory effect | did not exhibit an inhibitory effect | significantly inhibit | significantly inhibit | 11.79 | –
fructooligosaccharide [FOS] | not significantly inhibited | not significantly inhibited | – | – | – | – | – | – | – | –
CC(=O)Oc1ccccc1C(=O)O [aspirin, reference compound] | – | – | – | – | – | – | – | – | – | 18.05
